Experiment [1] concerns THP-1. The experiment can be described thus: Pro-apoptotic activity in human THP1 cells assessed as late apoptotic cells at 1 uM after 24 hrs by annexin V/propidium iodide staining-based flow cytometric method (reference value: 0.4 +/- 0.1%). The class given is functional. Background: Flow cytometry measures light scatter and fluorescence of single cells or particles in a stream.

The subject of experiment [2] is ASPC1. The experiment can be described thus: Pro-apoptotic activity in human AsPC1 cells assessed as necrotic cells at 50 uM after 24 hrs by annexin V/propidium iodide staining-based flow cytometric method (reference value: 2.1 +/- 0.4%). The class given is functional.
Experiment [3] deals with THP-1. The experiment is described as follows: Pro-apoptotic activity in human THP1 cells assessed as late apoptotic cells at 0.75 uM after 24 hrs by annexin V/propidium iodide staining-based flow cytometric method (reference value: 0.4 +/- 0.1%). The class given is functional.
Experiment [4] concerns THP-1. The experiment can be described thus: Pro-apoptotic activity in human THP1 cells assessed as necrotic cells at 10 uM after 24 hrs by annexin V/propidium iodide staining-based flow cytometric method relative to control. The class given is functional.
Experiment [5] is described as follows: Cell cycle arrest in human THP1 cells assessed as accumulation at G0/G1 phase at 3 uM after 24 hrs by flow cytometric method (reference value: 51 +/- 6%). The conditions noted are these: THP-1. In kind it is functional, cell-based.
Experiment [6] can be described thus: Cell cycle arrest in human AsPC1 cells assessed as accumulation at G0/G1 phase at 75 uM after 24 hrs by flow cytometric method (reference value: 48 +/- 7%). In kind it is functional, cell-based.
Experiment [7] has as its system THP-1. The experiment is described as follows: Pro-apoptotic activity in human THP1 cells assessed as early apoptotic cells at 0.75 uM after 24 hrs by annexin V/propidium iodide staining-based flow cytometric method (reference value: 0.4 +/- 0.1%). In kind it is functional.
The test system of experiment [8] is THP-1. The experiment is described as follows: Pro-apoptotic activity in human THP1 cells assessed as necrotic cells at 0.5 uM after 24 hrs by annexin V/propidium iodide staining-based flow cytometric method relative to control. The class given is functional.

On to `NC(=[Se])N/N=C/c1cccc2cccnc12`, for which the Activity is 2% in experiment [1]; 1.7% in experiment [2]; 2.4% in experiment [3]; 4% in experiment [4]; 43% in experiment [5]; 63.3% in experiment [6]. For the same compound, the Activity in experiment [7] is recorded as 1.1%; in experiment [8], 0.7%.
